Assays:
[1] = tested on: hESCs; experiment: Alamar blue assay, hESCs; type: cell-based, human; details: FIG. 12
Protocol: Alamar blue assay measured the relative cell number. In the cells, we added 1/10 of Alamar Blue Viability Assay reagent to the total volume of the mixture (Biotium; Fremont, CA, USA). The cells were incubated overnight at 37° C. The resulted were quantified by the measurement of optical density (OD) absorbance values at 570 nm and 600 nm, and the relative cell number was calculated.

[2] = tested on: hESCs teratoma formation; experiment: In vivo tumorigenicity assay (teratoma formation of treated hESCs); details: hESCs treated 24 hours before subcutaneous injection into NSG mice; 8 weeks; vs DMSO
Protocol: Approximately 10^6 treated cells were mixed with 10^5 MEFs to promote teratoma formation in 50 μl PBS^32. The cells mixture and 1× Matrigel Matrix was mixed well and the cells were subcutaneously injected into NOD scid gamma mice (NSG mice) for 8 weeks. After 8 weeks, animals were sacrificed and teratoma was removed, fixed in 10% formalin, embedded in paraffin and stained with hematoxylin and eosin. H&E stain protocol was modified from previous study^33. For immunohistochemistry, teratoma sections were blocked using 5% milk for 1 hour, and stained with primary antibody at 4° C. overnight, follow by secondary antibody (Dako, Santa Clara, CA, USA) for 1 hour at RT and DAB enhancer (Dako). Primary antibody: anti-human alpha-1-fetoprotein (A0008, Dako) for endoderm lineage; anti-human smooth muscle actin, clone 1A4 (M0851, Dako) for mesoderm lineage; anti-Tuj1 (MAB1637, EMD Millipore, Darmstadt, Germany) for ectoderm.

[3] = tested on: Nanog in hESCs; experiment: Western blot of pluripotent stem cell marker Nanog, hESCs; type: cell-based, human; details: 2.5 μM, 12 hours
Protocol: RIPA buffer was used to harvest cell lysates (RIPA buffer: NaCl 150 mM, Tris pH 8.0 50 mM, EDTApH 8.0 5 mM, NP-40 1.0%, SDS 0.5%, sodium deoxycholate 0.1%). Western blot analyses were performed as previously described with different types of primary antibodies^29. The primary antibody includes anti-β-actin (A5441; Sigma), anti-Oct4 (sc-9081; Santa Cruz Biotechnology, Santa Cruz, CA, USA), anti-Nanog (3580; Cell Signaling Technology, Danvers, MA, USA), apoptosis antibody kit (9915; Cell Signaling Technology), ATP1A1 (3010; Cell Signaling Technology), and ATP1A2 (16836-1-AP; Proteintech™) were used. After reaction at 4° C. overnight, the blots were incubated with goat anti-mouse- or goat anti-rabbit antibody conjugated with horseradish peroxidase (Jackson ImmunoResearch Inc). The chemiluminescent substrate (WBKLS0500; Millipore, Darmstadt, Germany) was used to detect the blots. Fujifilm LAS-4000 (FUJIFILM, Tokyo, Japan) was used to take the images.

[4] = tested on: H9 hESC-MSCs; details: 2.5 μM, 24 hours
Protocol: The supernatants of cells treated with digoxin […], lanatoside C 2.5 μm, or DMSO solvent control for 24 hours were harvested. The released LDH was measured using CytoTox 96 […] assay according to the manufacture's instruction (Promega, Southampton, UK). The supernatants and reagents were incubated at room temperature for 20 minutes and then the reaction was stopped by Stop Solution. The absorbance at 490 nm was measured using a plate-reading spectrophotometer (Benchmark Plus Microplate Spectrophotometer System, BIO-RAD, CA, USA).
According to the report from Dr. Xu and colleagues^30, hESCs were cultured with 10 ng/ml BMP4 and 1 μM of A8301 for 5 days. Next, the cells were passaged on the gelatin-coated plate and the culture medium was switched to MSC culture medium [Minimum Essential Medium Eagle Alpha Modification (αMEM) medium supplemented with 20% fetal bovine serum (FBS), 1-glutamine (Gluta-MAX), 1× nonessential amino acids]. Cells were expanded within passage 5, and CD73^+ (11-0793, ThermoFisher Scientific) and CD105^+ (12-1057, ThermoFisher Scientific) double positive cells were sorted.
hESC-derived MSCs were trypsinized and washed with PBS. Then cells were incubated with anti-human CD73 FITC (ThermoFisher Scientific) and anti-human CD105 PE (ThermoFisher Scientific) for 15 minutes at 4° C. Cells were washed cells with PBS for three times. CD73^+/CD105^+ cells were sorted with the cell sorter (BD FACSAria II, BD Biosciences). Sorted cells were maintained in MSC culture medium.

[5] = tested on: hBMMSCs; experiment: Osteogenic differentiation and Alizarin Red S staining; type: cell-based, human; details: 2.5 μM 24 hours, drug removed; Alizarin Red S O.D 570 nm
Protocol: Drugs were removed, and the cells were washed with PBS and cultured in MSCgo™ Osteogenic Differentiation medium (Biological Industries, Kibbutz Beit-Haemek, Israel)^31. The media changed twice per week for 14-21 days. Next, the cells were fixed with ice-cold 70% ethanol at −20° C. for 1 hour. After washing with water for three times, the cells were then stained with 40 mM Alizarin Red S (ARS) (pH 4.2) at room temperature for 10 minutes. The cells were then washed with PBS for five times. An Olympus CK-40 microscope was used to take the images. For quantification, the dye was extracted with 10% (w/v) cetylpyridinium chloride (Sigma 0732) in sodium phosphate buffer (pH 7.0) for 15 minutes, and the O.D. at 570 nm was measured.

[6] = tested on: hBMMSCs; experiment: Cell morphology under bright field, hBMMSCs; type: cell-based, human; details: 2.5 μM, 12 hours and 24 hours
Text: Scale bar: 500 μm. […] The samples were normalized to the DMSO-treated hESCs. ***P<0.001; **P<0.01; n.s. not significant. Data are shown as the mean SD.

| SMILES | cell death in hESCs (Alamar blue, relative cell number) [1] | tumor (teratoma) weight [2] | protein levels of Nanog in hESCs [3] | cytotoxicity (LDH release) in H9 hESC-MSCs [4] | differentiation ability of hBMMSCs into osteoblasts [5] | survival of hBMMSCs (bright field morphology) [6] |
| --- | --- | --- | --- | --- | --- | --- |
| C[C@H]1O[C@@H](O[C@H]2[C@@H](O)C[C@H](O[C@H]3[C@@H](O)C[C@H](O[C@H]4CC[C@@]5(C)[C@H](CC[C@@H]6[C@@H]5C[C@@H](O)[C@]5(C)[C@@H](C7=CC(=O)OC7)CC[C@]65O)C4)O[C@@H]3C)O[C@@H]2C)C[C@H](O)[C@@H]1O [Digoxin, digoxin] | dose dependent manner | significantly decreased | downregulated | Neither Digoxin nor lanatoside C affected the survival | neither digoxin nor lanatoside C affected the differentiation ability | did not affect the survival |
| CC(=O)O[C@H]1C[C@H](O[C@H]2[C@@H](O)C[C@H](O[C@H]3[C@@H](O)C[C@H](O[C@H]4CC[C@@]5(C)[C@H](CC[C@@H]6[C@@H]5C[C@@H](O)[C@]5(C)[C@@H](C7=CC(=O)OC7)CC[C@]65O)C4)O[C@@H]3C)O[C@@H]2C)O[C@H](C)[C@H]1O[C@@H]1O[C@H](CO)[C@@H](O)[C@H](O)[C@H]1O [Lanatoside C, lanatoside C] | dose dependent manner | significantly decreased | downregulated | Neither Digoxin nor lanatoside C affected the survival | neither digoxin nor lanatoside C affected the differentiation ability | did not affect the survival |

Source: US12351819B2, “Method for removing undifferentiated pluripotent stem cells” (priority 2017, dated 2025)
